In test [1] the test system is CFA-induced arthritis ICR mice. Put plainly: Paw withdraw threshold (von Frey Filament) over time after single oral administration in CFA-induced arthritis mice. Particulars: for time after administration of best antinociceptive effect: oral, peptide 3 mg/kg, morphine 10 mg/kg, PWT at 0, 30, 60, 90, 120 min, effect started to decrease at 120 min.
Test [2] concerns C57BL/6JNarl male mice. Put plainly: Acid-induced abdominal constriction (writhing) assay. Particulars: oral doses of 1 μg/kg and 10 mg/kg, among 0.1 μg/kg to 10 mg/kg tested; 10 min before 1% acetic acid; FIG. 9. Type of test: in vivo. As for the experimental part: (§1) For conducting nociceptive pain and acid-induced chronic widespread pain experiments, C57BL/6JNarl male mice (20 to 25 g) were housed in an environment with temperature control (24±0.5° C.) and 12-hour light-dark cycle (lights on during 08:00-20:00) and allowed free access to standard laboratory food and tap water. Animals were allowed to acclimatize for 20 to 30 min prior to experimental manipulations. Animal care and handling procedures were adopted in accordance with the International Association for the Study of Pain guidelines for those animals used in pain research, and the procedures were approved by the Committee for Ethics in Animal Research.
Acid-induced abdominal constriction assay was performed in accordance with H. O. Collier, L. C. Dinneen, C. A. Johnson, C. Schneider, The abdominal constriction response and its suppression by analgesic drugs in the mouse. Br J Pharmacol Chemother 32, 295-310 (1968). In general, the mice from Preparation Example 3 were placed in a small observation chamber and habituated for 20 min. […] The numbers of abdominal constrictions in 30 min after acid injection were counted and the mean constriction numbers of mice of each group were calculated. […]

Test [3] relates to C57BL/6JNarl male mice. Put plainly: Radiant heat tail-flick test. The following applies: oral doses of 0.1 μg/kg, 0.3 μg/kg, 0.1 mg/kg, 1 mg/kg, 3 mg/kg and 10 mg/kg, among 0.01 μg/kg to 10 mg/kg tested; mean latency 10-90 min; FIG. 9. The format is in vivo. As for the experimental part:
as §1
The radiant heat tail-flick test was modified in accordance with F. E. D'Amour, D. L. Smith, A method for determining loss of pain sensation. The Journal of Pharmacology and Experimental Therapeutics 72, 74-79 (1941). The 5 to 12 mice from Preparation Example 3 were placed and acclimatized in the restrainers for 30 min prior to the tail-flick test. […] The latency was recorded every 10 min during the indicated time period (10-90 min) after oral administration with different dosages of the peptide of SEQ ID NO: 1 (0.01 μg/kg, 0.03 μg/kg, 0.1 μg/kg, 0.3 μg/kg, 1 μg/kg, 0.01 mg/kg, 0.1 mg/kg, 1 mg/kg, 3 mg/kg, and 10 mg/kg). Then the mean latency during 10-90 min was calculated. […]

Test [4] relates to IL-6. Put plainly: Serum IL-6 by ELISA in CFA-induced arthritis mice after weekly oral administration. The following applies: 3 mg/kg oral once a week, 4th to 12th week; serum on 12th week; vs control group; FIG. 2. Type of test: in vivo. As for the experimental part:
(§2) On the other hand, the mice administered with water were served as the control group, which also comprised 6 mice. The mice in the experimental group and the control group were sacrificed on the 12th week after administration. The serum collection is conducted by cardiac puncture. The Mouse TNF-α Quantikine ELISA Kit (R&D System, MTA00B), Mouse IL-6 Quantikine ELISA Kit (R&D System, M600B) and enzyme-linked immunosorbent assay (ELISA) were used to determine and collect the serum concentration of TNF-α and IL-6 of mice in the experimental group and the control group.

Test [5] has as its system CFA-induced arthritis ICR mice. Put plainly: Paw withdraw threshold (von Frey Filament) after low oral doses (μg/kg) in CFA-induced arthritis mice. The following applies: 90 min after administration; for PWT value of ipsilateral hind paw: rose from 0.065 g, FIG. 7; for PWT value of contralateral paw: rose from 0.32 g, FIG. 8. The format is in vivo. An excerpt: Every dosage group contained 6 mice.

Test [6] has as its system CFA-induced arthritis ICR mice. The test can be described thus: Paw withdraw threshold (von Frey Filament) on weekly oral administration, 4th to 12th week, in CFA-induced arthritis mice. The format is in vivo. The following applies: 1 mg/kg oral once a week, 90 min after administration, increased from 0.4 g at 3rd week, FIG. 6. The text has this: Two dosage groups both contained 6 mice. […] The control group also contained 6 mice.

Test [7] concerns TNF-α. The test can be described thus: Serum TNF-α by ELISA in CFA-induced arthritis mice after weekly oral administration. Type of test: in vivo. Particulars: 3 mg/kg oral once a week, 4th to 12th week; serum on 12th week; FIG. 1. As for the experimental part:
as §2

Each structure is given as a SMILES string. Non-standard residues stand in square brackets, D forms with d. Residues, ends and D or L forms follow the SMILES beside them. pGlu = O=C1CC[C@@H](C(=O)O)N1

For the compound `CN1CC[C@]23c4c5ccc(O)c4O[C@H]2[C@@H](O)C=C[C@H]3[C@H]1C5` [morphine, reference compound], the “time after administration of best antinociceptive effect” value in test [1] worked out at 90 min.
For the compound `CC(C)[C@H](NC(=O)[C@H](C)NC(=O)[C@@H](NC(=O)[C@H](CCC(=O)O)NC(=O)[C@@H]1CCC(=O)N1)[C@@H](C)O)C(=O)N[C@@H](CO)C(=O)N[C@@H](CO)C(=O)N[C@@H](Cc1c[nH]cn1)C(=O)N[C@@H](CCC(=O)O)C(=O)N[C@@H](CCC(N)=O)C(=O)N[C@@H](CC(=O)O)C(=O)O` [peptide of SEQ ID NO: 1, Glp Glu Thr Ala Val Ser Ser His Glu Gln Asp] ([pGlu]ETAVSSHEQD-OH), the “antinociceptive effect in the acid-induced writhing experiment” value in test [2] was “best antinociceptive effect”. In addition, in test [3], the “antinociceptive effect in the radiant heat tail-flick test” value is recorded as “best antinociceptive effect”. In addition, in test [4], the “serum concentration of IL-6” value is reported as “decreased compared to the control group”. In addition, the “PWT value of ipsilateral hind paw” value was determined as 1 g in test [5] (0.3 μg/kg oral); 0.6 g in test [5] (1 μg/kg oral); 0.16 g in test [5] (3 μg/kg oral); 0.9 ± 0.156 g in test [1] (peptide 3 mg/kg oral, at 90 min, rose from 0.07 g, FIG. 3). The “PWT value of contralateral paw” value in test [5] (0.3 μg/kg oral) was 1 g; in test [5] (1 μg/kg oral) it was 1.4 g; in test [5] (3 μg/kg oral), 1 g; in test [1] (peptide 3 mg/kg oral, at 90 min, rose from 0.5±0.047 g, FIG. 4), 1.35 ± 0.193 g; in test [6] it was 0.6˜1.2 g. Besides, the “time after administration of best antinociceptive effect” value in test [1] was 90 min. Besides, the “antinociceptive effect compared with morphine” value in test [1] (peptide 3 mg/kg oral vs morphine 10 mg/kg oral, a lower amount was required) is on record as “antinociceptive effect similar to morphine”. Also, the “serum concentration of TNF-α” value in test [7] is given as “not detected”.
